# Results published in patent US20240246934A1, “QUINAZOLINE-BASED COMPOUND, COMPOSITION, AND APPLICATION OF QUINAZOLINE-BASED COMPOUND” (BEIJING SCITECH-MQ PHARMACEUTICALS LIMITED, priority 2021, published 2024).
# Key:
# EGFR^WT kinase = EGFR^WT kinase (Homo sapiens, UniProt P00533); assay: EGFR^WT kinase assay (ULight/PT66 TR-FRET); format: biochemical
# Summary of the method: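 Enzyme preincubated 5 min with compound (11-point 3-fold series, duplicate), then ULight-JAK-1 (Tyr1023) peptide and ATP added at 4× stocks of 400 nM and 600 μM; 120 min reaction at room temperature. PT66 antibody TR-FRET read after 60 min; IC50 fitted from inhibition rates.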
# [1] = target: Ba/F3 HER2 A775_G776insYVMA cells (Homo sapiens, UniProt P04626, DUP772-775, cells depend on it); assay: Inhibition of cell proliferation, CTG method, Ba/F3 HER2 A775_G776insYVMA; format: cell-based; settings: 72 hours, read-out: Ba/F3 HER2 A775-G776insYVMA IC50
# Ba/F3 HER2 A775_G776insYVMA cells, sequence (P04626 with tags, fused parts or gaps DUP772-775): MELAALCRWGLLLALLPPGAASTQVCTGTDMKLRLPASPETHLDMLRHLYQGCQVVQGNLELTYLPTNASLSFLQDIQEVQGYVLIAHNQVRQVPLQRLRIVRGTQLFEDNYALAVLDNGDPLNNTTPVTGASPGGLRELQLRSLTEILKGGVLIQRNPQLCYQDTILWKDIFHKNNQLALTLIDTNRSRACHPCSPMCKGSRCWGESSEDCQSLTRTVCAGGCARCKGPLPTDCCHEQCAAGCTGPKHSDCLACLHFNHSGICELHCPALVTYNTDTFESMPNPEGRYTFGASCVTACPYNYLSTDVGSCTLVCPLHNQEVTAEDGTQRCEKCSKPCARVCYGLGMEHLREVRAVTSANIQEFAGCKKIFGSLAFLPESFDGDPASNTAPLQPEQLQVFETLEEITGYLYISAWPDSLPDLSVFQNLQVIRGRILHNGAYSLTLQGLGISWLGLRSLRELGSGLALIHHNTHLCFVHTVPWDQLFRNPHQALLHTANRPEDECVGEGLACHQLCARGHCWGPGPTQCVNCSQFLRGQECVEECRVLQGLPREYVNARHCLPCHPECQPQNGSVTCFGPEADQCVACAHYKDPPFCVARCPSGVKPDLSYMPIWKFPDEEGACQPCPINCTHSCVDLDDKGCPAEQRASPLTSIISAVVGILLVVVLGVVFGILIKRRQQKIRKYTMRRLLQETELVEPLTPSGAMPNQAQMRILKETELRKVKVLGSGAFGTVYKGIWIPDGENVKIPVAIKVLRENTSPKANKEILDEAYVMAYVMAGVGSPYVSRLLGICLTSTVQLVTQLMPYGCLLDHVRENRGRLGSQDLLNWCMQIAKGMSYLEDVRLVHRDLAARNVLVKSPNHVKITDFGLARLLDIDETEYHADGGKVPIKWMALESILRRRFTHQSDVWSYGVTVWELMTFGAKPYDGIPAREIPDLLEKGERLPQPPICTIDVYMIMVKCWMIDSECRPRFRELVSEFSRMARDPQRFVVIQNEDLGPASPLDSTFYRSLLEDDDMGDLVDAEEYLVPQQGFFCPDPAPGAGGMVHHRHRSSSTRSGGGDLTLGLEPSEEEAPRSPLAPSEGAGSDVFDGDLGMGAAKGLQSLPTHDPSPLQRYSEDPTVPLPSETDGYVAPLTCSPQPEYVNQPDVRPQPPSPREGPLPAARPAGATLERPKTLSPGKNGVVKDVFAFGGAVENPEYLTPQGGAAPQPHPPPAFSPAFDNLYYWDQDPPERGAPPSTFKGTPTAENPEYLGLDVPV
# Summary of the method: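 Ba/F3 HER2 A775_G776insYVMA cells in RPMI1640 with 10% FBS were plated at 3000 cells/well and treated directly with compound (top 10 μM, 4-fold, 9 concentrations, duplicates).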
# HER2 kinase = target: T1, HER2 kinase (Homo sapiens, UniProt P04626); assay: HER2 kinase assay (ULight/PT66 TR-FRET); format: biochemical
# T1 construct: purchased Carna Biosciences 08-016
# T1 sequence (P04626 23-1255): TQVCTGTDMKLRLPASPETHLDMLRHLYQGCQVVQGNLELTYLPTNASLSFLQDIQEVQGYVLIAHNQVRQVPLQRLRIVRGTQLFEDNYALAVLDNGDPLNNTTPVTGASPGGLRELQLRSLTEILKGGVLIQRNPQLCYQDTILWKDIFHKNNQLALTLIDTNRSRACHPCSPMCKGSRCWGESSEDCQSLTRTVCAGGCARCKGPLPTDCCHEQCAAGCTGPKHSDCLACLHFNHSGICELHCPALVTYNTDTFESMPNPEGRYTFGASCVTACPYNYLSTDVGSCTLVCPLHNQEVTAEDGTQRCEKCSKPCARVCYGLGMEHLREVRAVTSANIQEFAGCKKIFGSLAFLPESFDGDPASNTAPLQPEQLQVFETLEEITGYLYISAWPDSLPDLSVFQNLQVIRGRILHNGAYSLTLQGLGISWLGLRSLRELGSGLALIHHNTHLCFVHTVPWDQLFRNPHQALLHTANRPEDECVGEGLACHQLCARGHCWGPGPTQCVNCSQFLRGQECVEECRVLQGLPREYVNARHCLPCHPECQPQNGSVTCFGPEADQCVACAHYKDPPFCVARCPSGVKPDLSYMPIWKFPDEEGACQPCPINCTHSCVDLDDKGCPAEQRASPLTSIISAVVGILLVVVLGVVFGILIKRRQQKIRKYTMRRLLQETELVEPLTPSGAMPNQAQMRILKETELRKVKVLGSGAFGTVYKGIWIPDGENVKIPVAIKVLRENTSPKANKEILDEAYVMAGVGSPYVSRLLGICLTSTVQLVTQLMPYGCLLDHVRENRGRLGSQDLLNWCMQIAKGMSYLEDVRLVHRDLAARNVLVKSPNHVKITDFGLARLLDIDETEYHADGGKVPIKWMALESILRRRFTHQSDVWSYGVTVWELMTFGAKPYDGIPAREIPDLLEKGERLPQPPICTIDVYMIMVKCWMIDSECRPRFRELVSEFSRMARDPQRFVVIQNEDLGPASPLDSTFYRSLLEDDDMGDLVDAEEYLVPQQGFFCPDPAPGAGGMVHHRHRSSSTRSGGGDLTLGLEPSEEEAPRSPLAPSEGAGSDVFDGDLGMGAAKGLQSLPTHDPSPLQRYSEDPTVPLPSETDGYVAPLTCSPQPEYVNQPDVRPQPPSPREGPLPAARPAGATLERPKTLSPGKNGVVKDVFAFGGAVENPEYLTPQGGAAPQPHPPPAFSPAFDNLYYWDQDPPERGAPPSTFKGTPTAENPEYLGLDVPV
# Summary of the method: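 HER2 kinase preincubated 5 min with compounds (11-point 3-fold series, duplicates), then reacted 120 min at room temperature with ATP and ULight-poly GT peptide, each prepared at 4× working concentration (40 μM ATP, 400 nM substrate, 40 nM kinase). PT66 antibody added for 60 min, TR-FRET read; IC50 from inhibition curves.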
# [2] = Pharmacokinetics in SD rats, single intravenous injection and oral administration; format: in vivo, SD rat; settings: for AUC(0-inf) / AUC(0-t) / Vd / half-life / bioavailability / Cmax / Tmax: SD, rat, whole blood; for bioavailability: PO 10 mg/kg vs IV 3 mg/kg, read-out: F % (bioavailability)
# Summary of the method: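 SD rats received a single IV or oral dose of a solution formulation; the oral group was fasted overnight (>12 hrs) and fed 2 hrs post-dose, the IV group not fasted. Blood and brain were sampled at set times and analysed by LC/MS; CL, Vd, T1/2, Cmax, Tmax, AUC, MRT and F % come from plasma concentration-time data.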
# [3] = NA: Exposure was too low to be counted
# [4] = PO 10 mg/kg, NA: Exposure was too low to be counted
# EGFR^WT kinase, sequence (P00533 25-1210): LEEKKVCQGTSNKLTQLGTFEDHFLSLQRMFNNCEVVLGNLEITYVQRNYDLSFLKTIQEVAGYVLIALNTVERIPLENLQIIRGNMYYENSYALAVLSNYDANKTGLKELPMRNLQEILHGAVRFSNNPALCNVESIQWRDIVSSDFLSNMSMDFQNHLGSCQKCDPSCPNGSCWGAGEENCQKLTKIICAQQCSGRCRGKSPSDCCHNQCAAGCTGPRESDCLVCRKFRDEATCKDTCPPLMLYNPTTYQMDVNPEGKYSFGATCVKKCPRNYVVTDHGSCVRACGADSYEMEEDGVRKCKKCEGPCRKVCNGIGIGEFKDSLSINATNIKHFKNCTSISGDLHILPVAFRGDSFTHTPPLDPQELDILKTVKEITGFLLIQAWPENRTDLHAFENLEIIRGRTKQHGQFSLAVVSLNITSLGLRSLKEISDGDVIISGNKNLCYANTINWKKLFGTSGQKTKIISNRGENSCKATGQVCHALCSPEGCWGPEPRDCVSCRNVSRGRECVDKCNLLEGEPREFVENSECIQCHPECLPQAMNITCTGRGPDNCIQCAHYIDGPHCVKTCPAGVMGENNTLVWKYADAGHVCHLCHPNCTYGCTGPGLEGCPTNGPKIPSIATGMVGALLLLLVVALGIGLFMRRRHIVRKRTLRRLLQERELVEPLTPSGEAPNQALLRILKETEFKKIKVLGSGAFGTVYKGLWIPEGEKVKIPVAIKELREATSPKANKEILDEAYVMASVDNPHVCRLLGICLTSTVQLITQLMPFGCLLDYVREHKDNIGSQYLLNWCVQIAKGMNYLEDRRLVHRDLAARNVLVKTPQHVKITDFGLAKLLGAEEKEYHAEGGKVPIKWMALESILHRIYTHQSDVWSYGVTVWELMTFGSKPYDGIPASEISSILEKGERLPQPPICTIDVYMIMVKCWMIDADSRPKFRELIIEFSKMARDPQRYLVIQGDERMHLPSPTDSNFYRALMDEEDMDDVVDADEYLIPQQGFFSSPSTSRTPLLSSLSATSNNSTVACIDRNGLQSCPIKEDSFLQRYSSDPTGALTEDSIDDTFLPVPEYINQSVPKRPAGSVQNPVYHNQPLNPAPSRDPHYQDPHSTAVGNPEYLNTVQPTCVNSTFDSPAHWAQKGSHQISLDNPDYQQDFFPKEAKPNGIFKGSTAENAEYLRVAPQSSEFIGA
Structure (SMILES),IC50 (EGFR^WT kinase) [nM],GI50 [1] [nM],IC50 (HER2 kinase) [nM],Cl_obs ([2]; IV 3 mg/kg) [mL/min/kg],AUC(0-inf) ([2]; IV 3 mg/kg) [ng·h/mL],AUC(0-t) ([2]; IV 3 mg/kg) [ng·h/mL],Vd ([2]; IV 3 mg/kg) [L/kg],half-life ([2]; IV 3 mg/kg) [h],"bioavailability [2, 3] [%]","AUC(0-inf) [2, 4] [ng·h/mL]","AUC(0-t) [2, 4] [ng·h/mL]","Cmax [2, 4] [ng/mL]","Tmax [2, 4] [h]","half-life [2, 4] [h]"
"COCCCOc1c(NC(=O)/C=C/[C@H]2CCCN2C)ccc2ncnc(Nc3ccc(OCc4ccccn4)c(Cl)c3)c12 [Example 9, (R,E)-N-(4-((3-chloro-4-(pyridin-2-ylmethoxy)phenyl)amino)-5-(3-methoxypropoxy)quinazolin-6-yl)-3-(1-methylpyrrolidin-2-yl)acrylamide]",< 10,1 to 5,< 10,53.0 ± 6.7,955 ± 130,949 ± 128,18 ± 2.3,3.94 ± 0.18,34.9 ± 12.6,1110 ± 403,1100 ± 406,80.3 ± 30.5,5 ± 3.46,4.13 ± 0.57
"COc1c(NC(=O)/C=C/[C@H]2CCCN2C)ccc2ncnc(Nc3ccc(OCc4ccccn4)c(Cl)c3)c12 [Example 4, (R,E)-N-(4-((3-chloro-4-(pyridin-2-ylmethoxy)phenyl)amino)-5-methoxyquinazolin-6-yl)-3-(1-methylpyrrolidin-2-yl)acrylamide]",< 10,< 1,< 10,52.1 ± 9.3,979 ± 161,968 ± 156,20.2 ± 2.6,4.5 ± 0.21,27.6 ± 6.8,902 ± 223,888 ± 221,65.7 ± 19.9,5.33 ± 2.89,3.69 ± 0.31
"CCN1CCC[C@@H]1/C=C/C(=O)Nc1ccc2ncnc(Nc3ccc(OCc4ccccn4)c(Cl)c3)c2c1OC [Example 29, (R,E)-N-(4-((3-chloro-4-(pyridin-2-ylmethoxy)phenyl)amino)-5-methoxyquinazolin-6-yl)-3-(1-ethylpyrrolidin-2-yl)acrylamide]",< 10,< 1,< 10,54.0 ± 7.4,938 ± 134,914 ± 129,22.7 ± 2.4,4.86 ± 0.23,36.3 ± 3.4,1130 ± 106,1100 ± 107,95.3 ± 16.5,3.33 ± 3.21,4.63 ± 0.26
